ChEMBL document CHEMBL5344446, “Constituents from the Polar Extract of Pisolithus arhizus and Their Anti-inflammatory Activity” (J Nat Prod, 2024)
Calls of active or inactive are those of the source. No cut-off for these calls is given here.

Key:
THP-1 [1] = assay: Downregulation of pSTAT3 protein expression in LPS-induced PMA-differentiated human THP-1 cells at […] pretreated with LPS for 3 hrs followed by compound addition and measured after 6 hrs by Western blot analysis; assay type: functional, cell-based; settings: dose lower 25.0 mg/ml
THP-1 [2] = assay: Antiinflammatory activity in PMA-differentiated human THP-1 cells assessed as reduction in LPS-induced IL-6 secretion at 25 to 30 ug/ml pretreated with LPS for 3 hrs followed by compound addition and measured after 6 hrs by ELISA; assay type: functional, cell-based; settings: dose 25-30 µg/ml
THP-1 [3] = assay: Cytotoxicity against PMA-differentiated human THP-1 cells assessed as reduction in cell viability at 25 to 100 ug/ml measured after 24 hrs by MTT assay; assay type: toxicity, cell-based; settings: thp-1, 24 h, dose 25-100 µg/ml

For O=C1O/C(=C(/C(=O)O)c2ccc(O)cc2)C(O)=C1c1ccc2c(O)c(O)cc(C3=C(O)/C(=C(\C(=O)O)c4ccc(O)cc4)OC3=O)c2c1, the Activity (THP-1 [1]) was “Active”, the Activity (THP-1 [2]) was “Active” and the Activity (THP-1 [3]) was “Non-Toxic”.
